“Also recorded” adds a separate entry of the source. Where two headings read alike, the source gives them in different places. One block for each compound: values may come before it.
Experiments:
[1] = cited from earlier work
[2] = cited from earlier work; remark: listed apart in the source
[3] = Critical water activity for relative form stability: ethanol slurries at 25° C., XRPD; format: physicochemical; settings: for Final Form by XRPD: ethanol slurry 25° C.; for Water activity levels in ethanol at which the form is the stable form: EtOH slurries, 25° C.
Method: For robust isolation of desired squalamine phosphate crystal form, critical water activity in EtOH has been investigated in terms of the relative stability of ENT-01 Forms 1 and 2. The procedure is detailed below.
Nine samples of each Form 1 and Form 2 separately (˜25 mg each) were prepared in scintillation vials. To each vial ½ mL of ethanol with water activity levels from 0.1 to 0.9 were added and the vials were let to condition in a shaker at 25° C. for 2-3 days. Similarly, six mixed samples of Form 1 and 2 were prepared and slurry conditioned at water activity levels of 0.1 to 0.6 in ethanol at 25° C. The wet cakes of each slurry were analyzed by XRPD.
The slurries post conditioning were analyzed by XRPD. […] The XRPD pattern matches that of Form 2.

[4] = Form stability: low (27% RH) and high (70% RH) humidity conditioning, XRPD; format: physicochemical; settings: 21° C.
Method: One sample each of Form 1 and Form 2 on XRPD plates (˜10 mg each) were exposed to 21° C. 27% RH and 21° C. 70% RH for one and two days, respectively. The four samples were analyzed by XRPD (FIG. 12 and FIG. 13).

[5] = Form stability: dry ethanol slurry at 30° C., XRPD; format: physicochemical; settings: Slurry in dry ethanol at 30° C., overnight
Method: A small portion of Form 1 (˜50 mg) and a small portion of Form 2 (˜50 mg) were prepared in scintillation vials and equal volumes of sieve dried ethanol was added, the slurries were conditioned overnight in a shaker at 30° C. The wet slurries were analyzed by XRPD (FIG. 14).

[6] = Form stability: water-acetone and water-ethanol wash, then 40° C. drying, XRPD; format: physicochemical; settings: overnight
Method: Two small portions of Form 2 (˜100 mg each) were prepared in sample vials. The first one was slurried in water briefly followed by filtration and acetone wash. The second one was slurried in water briefly, filtered and washed with ethanol. Both samples were then oven dried at 40° C. overnight and analyzed by XRPD (FIG. 11).

HIV = settings: cited from earlier work
[7] = dose levels 6 to 700 mg/m(2)/day
[8] = patients, 500 mg/m(2)/day, 5-day continuous i.v. infusion

Compound: CC(C)[C@@H](CC[C@@H](C)[C@H]1CC[C@H]2[C@@H]3[C@H](O)C[C@H]4C[C@@H](NCCCNCCCCN)CC[C@]4(C)[C@H]3CC[C@]12C)OS(=O)(=O)O [squalamine, 3 beta-N-1-(N-[3-(4-aminobutyl)]-1,3-diaminopropane)-7 alpha,24 zeta-dihydroxy-5 alpha-cholestane 24-sulfate]
dose-limiting toxicity ([1]; 500 mg/m(2)/day): one of seven patients experienced dose-limiting grade 4 hyperbilirubinemia and grade 3 neurosensory changes | tolerability ([1]; 500 mg/m(2)/day): well tolerated | dose-limiting toxicity ([1]; 700 mg/m(2)/day): two of three patients developed grade 4 hyperbilirubinemia | pharmacokinetics versus dose [1, 7]: dose-proportional | principal dose-limiting toxicity [1, 7]: Hepatotoxicity | clearance, mean (percentage coefficient of variation) [1, 8]: 2.67 liters/h/m(2) | half-life, mean (percentage coefficient of variation) [1, 8]: 9.46 h | steady-state concentrations, mean (percentage coefficient of variation) [1, 8]: 20.08 micro g/ml | volume of distribution, mean (percentage coefficient of variation) [1, 8]: 36.84 liters/m(2) | dose-limiting toxicity (grade 3/4 arthralgia, myalgia, neutropenia) ([2]; 400 mg/m(2)/day with paclitaxel and carboplatin): two of three patients | dose selected as the Phase II dose on the basis of safety and toxicity ([2]; combination regimen with paclitaxel and carboplatin): 300 mg/m(2)/day | tolerability of the combination ([2]; continuously daily for 5 days, with paclitaxel and carboplatin on day 1): well tolerated

Compound: squalamine phosphate [Form 1 + 2]
Final Form by XRPD ([3]; mixed forms, Aw 0.099, water volume fraction 0.013, seven days): Form 1 | Final Form by XRPD ([3]; mixed forms, Aw 0.205, water volume fraction 0.030, seven days): Form 1 | Final Form by XRPD ([3]; mixed forms, Aw 0.298, water volume fraction 0.048, seven days): Form 1 | Final Form by XRPD ([3]; mixed forms, Aw 0.398, water volume fraction 0.073, seven days): Form 1 | Final Form by XRPD ([3]; mixed forms, Aw 0.502, water volume fraction 0.104, seven days): Form 1 | Final Form by XRPD ([3]; mixed forms, Aw 0.605 (0.6), water volume fraction 0.145, seven days): Form 2 | Final Form by XRPD ([3]; mixed forms, Aw 0.605 (0.6), water volume fraction 0.145, seven days, listed as Form 1 and 2): converted to Form 2 | Form after slurry conditioning, by XRPD ([3]; mixed slurries in Ethanol at water activity levels of 0.1 to 0.5 Aw at 25° C., seven days): converted to Form 1

Compound: Nc1nc(=O)n([C@@H]2CS[C@H](CO)O2)cc1F [COVIRACIL, emtricitabine]
greater activity in vitro than lamivudine (3TC) (HIV; in vitro): 3-to 10 fold

Compound: CC[C@H]1C(=O)Nc2ccc(F)cc2N1C(=O)OC(C)C [GW420867X]
greater activity than HBY097 (HIV): 25 fold

Compound: C[C@H](Sc1nc(N)cc(Cl)n1)c1cc2ccoc2cn1 [PNU-142721]
greater activity than its predecessor delavirdine (HIV): 20- to 50 fold

More lines, main results first:

Final Form by XRPD ([3]; Aw 0.000, water volume fraction 0.000, three days): Form 1 | Final Form by XRPD ([3]; Aw 0.099, water volume fraction 0.013, three days): Form 1 | Final Form by XRPD ([3]; Aw 0.205, water volume fraction 0.030, three days): Form 1 | Final Form by XRPD ([3]; Aw 0.298, water volume fraction 0.048, three days): Form 1 | Final Form by XRPD ([3]; Aw 0.398, water volume fraction 0.073, three days): Form 1 + Form 2 | Final Form by XRPD ([3]; Aw 0.502, water volume fraction 0.104, three days): Form 1 + Form 2 | Final Form by XRPD ([3]; Aw 0.700, water volume fraction 0.198, three days): Form 2 | Final Form by XRPD ([3]; Aw 0.802, water volume fraction 0.296, three days): Form 2 | Final Form by XRPD ([3]; Aw 0.900, water volume fraction 0.550, three days): Form 2
Compound: squalamine phosphate [Form 1 + Form 2]

Final Form by XRPD [5]: converted to Form 1 | Water activity levels in ethanol at which the form is the stable form [3]: ≥ 0.6 Aw | Form after slurry conditioning, by XRPD ([3]; slurries in Ethanol at water activity levels of 0.1 to 0.3 at 25° C., three days): converted to Form 1 | Form after slurry conditioning, by XRPD ([3]; slurries in Ethanol at water activity levels of 0.4 to 0.9 at 25° C., three days): stayed the same Form 2
Compound: squalamine phosphate [Form 2]
Final Form by XRPD ([4]; 27% RH, overnight (one day)): Form 1 was also obtained; also recorded: converted to Form 1 | Final Form by XRPD ([4]; 70% RH, two nights): remained the same as their respective starting forms; also recorded: Form 2 | Final Form by XRPD ([6]; Water-acetone wash + 40° C. dry): generates Form 1; also recorded: converted to Form 1 | Final Form by XRPD ([6]; Water-ethanol wash + 40° C. dry): generates Form 1; also recorded: converted to Form 1

Final Form by XRPD [5]: Form 1 | Water activity levels in ethanol at which the form is the stable form [3]: ≤ 0.5 Aw | Form after slurry conditioning, by XRPD ([3]; slurries in Ethanol at water activity levels of 0.1 to 0.6 at 25° C., three days): stayed the same Form | Form after slurry conditioning, by XRPD ([3]; slurries in Ethanol at water activity levels of 0.7 to 0.9 at 25° C., three days): converted to Form 2
Compound: squalamine phosphate [Form 1]
Final Form by XRPD ([4]; 27% RH, overnight (one day)): remained the same form; also recorded: Form 1 | Final Form by XRPD ([4]; 70% RH, two nights): remained the same as their respective starting forms; also recorded: Form 1

— US11066438B2, “Squalamine solid forms and methods of making the same” (Enterin, Inc., priority 2017, dated 2021)
